# From patent publication US11957792B2, “Taste-masked pharmaceutical compositions containing diclofenac” (GLATT AG, priority 2012, dated 2024)
# Columns and labels:
# [1] = Equilibrium solubility, saturation shake-flask method; type: physicochemical; conditions: 37 °C, thermodynamic from solid, mean ± SD (n=3)
# Procedure: The solubility of diclofenac free acid, sodium and potassium was comparatively evaluated in media reflecting the oral way of administration, as e.g. with different pH values. The equilibrium solubility was determined using the saturation shake-flask method. Briefly, an excess amount of drug was added into the different media maintained at 37±0.5° C. and shaken for at least 24 hours. After equilibrium was reached, the excess of solid was removed and the diclofenac concentration in the supernatant solutions was determined by HPLC.
# [2] = Agglomerate formation at pH 1.1 (such as gastric fluid); type: physicochemical
Compound,"solubility ([1]; 0.1N HCl, pH 1.1, simulated gastric fluid, 0.1N HCl pH 1.1)","solubility ([1]; simulated gastric fluid, pH 1.6, simulated gastric fluid, Simulated gastric fluid pH 1.6)",formation of agglomerates [2]
"O=C(O)Cc1ccccc1Nc1c(Cl)cccc1Cl [Diclofenac acid, 2-[(2,6-Dichlorophenyl)amino]benzeneacetic acid]",2.49 ± 0.15 µg/mL,1.72 ± 0.01 µg/mL,not diclofenac acid form agglomerates
O=C(O)Cc1ccccc1Nc1c(Cl)cccc1Cl [Diclofenac potassium],,,form agglomerates
O=C(O)Cc1ccccc1Nc1c(Cl)cccc1Cl [Diclofenac sodium],,,form agglomerates
